# *1 amine or outer side, *2 acyl side, *3 side chain or, on linkers, in order; H or OH if unused. Where a SMILES comes first, the peptide text is derived from it. Bridges are numbered along the chain shown (N, C = ends). Roman numbers before positions name the chains, in order. [ ]: non-standard residue; d: D form. Bip = N[C@@H](Cc1ccc(-c2ccccc2)cc1)C(=O)O; 1Nal = N[C@@H](Cc1cccc2ccccc12)C(=O)O; Diglycolyl = O=C(COCC(=O)[*:2])[*:1]; NMeR = CN[C@@H](CCCNC(=N)N)C(=O)O; X1 = O=C(c1ccccc1C[*:2])[*:1]; Pen = CC(C)(S)[C@H](N)C(=O)O
# Biological target: T1, RPMI 8866 cells (Homo sapiens, UniProt P13612+P26010)
# T1 sequence (P13612 34-1032): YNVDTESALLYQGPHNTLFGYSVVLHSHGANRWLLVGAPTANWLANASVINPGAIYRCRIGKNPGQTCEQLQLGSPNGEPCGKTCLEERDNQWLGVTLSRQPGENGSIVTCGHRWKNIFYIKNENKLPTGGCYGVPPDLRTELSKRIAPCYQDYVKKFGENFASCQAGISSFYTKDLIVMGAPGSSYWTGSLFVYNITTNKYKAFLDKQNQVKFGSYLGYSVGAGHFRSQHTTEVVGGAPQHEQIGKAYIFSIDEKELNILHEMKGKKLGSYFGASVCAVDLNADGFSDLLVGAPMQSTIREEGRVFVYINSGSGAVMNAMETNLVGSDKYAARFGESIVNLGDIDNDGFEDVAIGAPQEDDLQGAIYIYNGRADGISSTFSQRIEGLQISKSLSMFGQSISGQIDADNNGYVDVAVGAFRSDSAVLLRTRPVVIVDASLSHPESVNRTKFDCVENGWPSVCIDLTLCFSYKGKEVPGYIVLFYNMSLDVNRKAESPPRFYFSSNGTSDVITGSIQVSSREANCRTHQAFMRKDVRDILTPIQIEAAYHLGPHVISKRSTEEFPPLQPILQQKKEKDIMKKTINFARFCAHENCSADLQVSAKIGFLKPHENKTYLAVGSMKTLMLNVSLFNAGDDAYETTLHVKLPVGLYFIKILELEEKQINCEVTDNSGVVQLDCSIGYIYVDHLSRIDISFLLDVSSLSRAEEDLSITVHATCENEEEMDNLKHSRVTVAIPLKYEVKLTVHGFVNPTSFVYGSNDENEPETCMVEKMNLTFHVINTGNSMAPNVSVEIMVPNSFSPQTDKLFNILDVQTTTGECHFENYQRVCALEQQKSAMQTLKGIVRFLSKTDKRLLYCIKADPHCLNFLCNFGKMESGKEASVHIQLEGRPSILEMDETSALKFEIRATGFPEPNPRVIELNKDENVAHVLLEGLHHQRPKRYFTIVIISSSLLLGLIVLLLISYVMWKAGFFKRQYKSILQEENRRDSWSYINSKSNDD
# T1 sequence (P26010 20-798): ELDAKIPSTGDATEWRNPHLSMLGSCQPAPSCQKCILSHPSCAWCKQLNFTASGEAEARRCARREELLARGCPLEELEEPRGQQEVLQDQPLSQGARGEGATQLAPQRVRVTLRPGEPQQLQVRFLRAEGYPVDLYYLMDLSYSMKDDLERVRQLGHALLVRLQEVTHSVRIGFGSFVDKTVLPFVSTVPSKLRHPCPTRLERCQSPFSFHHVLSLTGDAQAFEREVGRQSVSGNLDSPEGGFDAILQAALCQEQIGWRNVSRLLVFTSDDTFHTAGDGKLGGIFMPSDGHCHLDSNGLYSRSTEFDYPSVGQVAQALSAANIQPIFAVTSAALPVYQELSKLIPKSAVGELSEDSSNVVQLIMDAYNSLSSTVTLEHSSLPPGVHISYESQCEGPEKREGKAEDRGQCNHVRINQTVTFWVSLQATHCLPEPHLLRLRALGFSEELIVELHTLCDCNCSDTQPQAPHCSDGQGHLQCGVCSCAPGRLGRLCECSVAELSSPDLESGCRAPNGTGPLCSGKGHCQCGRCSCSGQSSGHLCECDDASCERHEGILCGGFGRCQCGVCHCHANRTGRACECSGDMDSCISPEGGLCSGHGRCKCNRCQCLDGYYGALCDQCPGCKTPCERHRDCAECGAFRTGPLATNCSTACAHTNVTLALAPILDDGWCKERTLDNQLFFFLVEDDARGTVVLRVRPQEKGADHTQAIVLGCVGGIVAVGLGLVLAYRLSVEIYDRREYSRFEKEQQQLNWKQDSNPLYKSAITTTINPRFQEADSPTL
# Experiment: α4β7-MAdCAM Cell Adhesion Assay
# Format: cell-based
# Settings: thioether monomer peptides, Table 6; read-out: Cell-Adhesion A4B7
# How it was run: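 RPMI 8866 cells (200,000/well) in DMEM with 1 mM MnCl2 and 0.1% BSA were allowed to adhere 30-45 min at 37° C to plates coated with rh MAdCAM-1/Fc (200 ng/well) in presence of serially diluted peptide. After washing, bound cells quantified by MTT, absorbance 570 nm, cell-free background subtracted.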
row,SMILES,IC50 [nM]
1,"CC(=O)NCCCC[C@@H](NC(=O)[C@H](CCC(=O)O)NC(=O)[C@H](Cc1cccc2ccccc12)NC(=O)[C@H]1NC(=O)[C@H](CC(C)C)NC(=O)[C@H]([C@@H](C)O)NC(=O)[C@H](CC(=O)O)NC(=O)[C@H](CO)NC(=O)[C@H](CCCNC(=N)N)N(C)C(=O)c2ccccc2CSC1(C)C)C(N)=O [compound 89] (HELM PEPTIDE1{[meR].S.D.T.L.[Pen].[O=C([C@H](Cc1cccc2ccccc12)N[*:1])[*:2]].E.[dK].[am]}|PEPTIDE2{[ac]}|CHEM1{[O=C(c1ccccc1C[*:2])[*:1]]}$PEPTIDE1,PEPTIDE2,9:R3-1:R2|PEPTIDE1,CHEM1,1:R1-1:R1|PEPTIDE1,CHEM1,6:R3-1:R2$$$V2.0)",100 to 1000
2,"CC(C)C[C@@H]1NC(=O)[C@H]([C@@H](C)O)NC(=O)[C@H](CC(=O)O)NC(=O)[C@H](CO)NC(=O)[C@H](CCCNC(=N)N)N(C)C(=O)c2ccccc2CSC(C)(C)[C@@H](C(=O)N[C@@H](Cc2c[nH]c3ccccc23)C(=O)N[C@H](CCC(=O)O)C(=O)N[C@@H](Cc2c[nH]cn2)C(N)=O)NC1=O [compound 102] (HELM PEPTIDE1{[meR].S.D.T.L.[Pen].W.[dE].H.[am]}|CHEM1{[O=C(c1ccccc1C[*:2])[*:1]]}$PEPTIDE1,CHEM1,1:R1-1:R1|PEPTIDE1,CHEM1,6:R3-1:R2$$$V2.0)",25 to 100
3,"CC(C)C[C@@H]1NC(=O)[C@H]([C@@H](C)O)NC(=O)[C@H](CC(=O)O)NC(=O)[C@H](CO)NC(=O)[C@H](CCCNC(=N)N)N(C)C(=O)c2ccccc2CSC(C)(C)[C@@H](C(=O)N[C@@H](Cc2ccc3ccccc3c2)C(=O)N[C@H](CCC(=O)O)C(N)=O)NC1=O [compound 114] (HELM PEPTIDE1{[meR].S.D.T.L.[Pen].[O=C([C@H](Cc1ccc2ccccc2c1)N[*:1])[*:2]].[dE].[am]}|CHEM1{[O=C(c1ccccc1C[*:2])[*:1]]}$PEPTIDE1,CHEM1,1:R1-1:R1|PEPTIDE1,CHEM1,6:R3-1:R2$$$V2.0)",25 to 100
4,"CC(C)C[C@@H]1NC(=O)[C@H]([C@@H](C)O)NC(=O)[C@H](CC(=O)O)NC(=O)[C@H](CO)NC(=O)[C@H](CCCNC(=N)N)N(C)C(=O)c2ccccc2CSC(C)(C)[C@@H](C(=O)N[C@@H](Cc2c[nH]c3ccccc23)C(=O)N[C@H](CCC(=O)O)C(=O)N[C@H](CO)C(N)=O)NC1=O [compound 106] (HELM PEPTIDE1{[meR].S.D.T.L.[Pen].W.[dE].[dS].[am]}|CHEM1{[O=C(c1ccccc1C[*:2])[*:1]]}$PEPTIDE1,CHEM1,1:R1-1:R1|PEPTIDE1,CHEM1,6:R3-1:R2$$$V2.0)",25 to 100
5,"CC(C)C[C@@H]1NC(=O)[C@H]([C@@H](C)O)NC(=O)[C@H](CC(=O)O)NC(=O)[C@H](CO)NC(=O)[C@H](CCCNC(=N)N)N(C)C(=O)c2ccccc2CSC(C)(C)[C@@H](C(=O)N[C@@H](Cc2cccc3ccccc23)C(=O)N[C@H](CCC(=O)O)C(=O)N(C)[C@@H](CCCCN)C(N)=O)NC1=O [compound 69] (HELM PEPTIDE1{[meR].S.D.T.L.[Pen].[O=C([C@H](Cc1cccc2ccccc12)N[*:1])[*:2]].[dE].[meK].[am]}|CHEM1{[O=C(c1ccccc1C[*:2])[*:1]]}$PEPTIDE1,CHEM1,1:R1-1:R1|PEPTIDE1,CHEM1,6:R3-1:R2$$$V2.0)",100 to 1000
6,"CC(C)C[C@@H]1NC(=O)[C@H]([C@@H](C)O)NC(=O)[C@H](CC(=O)O)NC(=O)[C@H](CO)NC(=O)[C@H](CCCNC(=N)N)N(C)C(=O)c2ccccc2CSC(C)(C)[C@@H](C(=O)N[C@@H](Cc2c[nH]c3ccccc23)C(=O)N[C@H](CCC(=O)O)C(=O)N[C@@H](Cc2ccc(O)cc2)C(N)=O)NC1=O [compound 104] (HELM PEPTIDE1{[meR].S.D.T.L.[Pen].W.[dE].Y.[am]}|CHEM1{[O=C(c1ccccc1C[*:2])[*:1]]}$PEPTIDE1,CHEM1,1:R1-1:R1|PEPTIDE1,CHEM1,6:R3-1:R2$$$V2.0)",25 to 100

# Same assay, conditions: thioether peptide dimers, Table 7; read-out: Cell-Adhesion A4B7
row,SMILES,IC50 [nM]
1,CC(C)C[C@@H]1NC(=O)[C@H]([C@@H](C)O)NC(=O)[C@H](CC(=O)O)NC(=O)[C@H](CO)NC(=O)[C@H](CCCNC(=N)N)N(C)C(=O)CSC[C@@H](C(=O)N[C@@H](Cc2c[nH]c3ccccc23)C(=O)N[C@H](CCCCNC(=O)COCC(=O)NCCCC[C@@H](NC(=O)[C@H](Cc2c[nH]c3ccccc23)NC(=O)[C@@H]2CSCC(=O)N(C)[C@@H](CCCNC(=N)N)C(=O)N[C@@H](CO)C(=O)N[C@@H](CC(=O)O)C(=O)N[C@@H]([C@@H](C)O)C(=O)N[C@@H](CC(C)C)C(=O)N2)C(N)=O)C(N)=O)NC1=O [compound 143],100 to 1000
2,"CC(C)C[C@@H]1NC(=O)[C@H]([C@@H](C)O)NC(=O)[C@H](CC(=O)O)NC(=O)[C@H](CO)NC(=O)[C@H](CCCNC(=N)N)N(C)C(=O)c2ccccc2CSC(C)(C)[C@@H](C(=O)N[C@@H](Cc2ccccc2)C(=O)N[C@H](CCC(=O)O)C(=O)N[C@H](CCCCNC(=O)COCC(=O)NCCCC[C@@H](NC(=O)[C@@H](CCC(=O)O)NC(=O)[C@H](Cc2ccccc2)NC(=O)[C@H]2NC(=O)[C@H](CC(C)C)NC(=O)[C@H]([C@@H](C)O)NC(=O)[C@H](CC(=O)O)NC(=O)[C@H](CO)NC(=O)[C@H](CCCNC(=N)N)N(C)C(=O)c3ccccc3CSC2(C)C)C(=O)O)C(=O)O)NC1=O [compound 204] (I: [NMeR]SDTL[Pen]F[dE][dK]-OH / II: [NMeR]SDTL[Pen]F[dE][dK]-OH; linker I:9-II:9 via Diglycolyl; linker I:N-I:6, II:N-II:6 via X1)",< 25
3,"CC(C)C[C@@H]1NC(=O)[C@H]([C@@H](C)O)NC(=O)[C@H](CC(=O)O)NC(=O)[C@H](CO)NC(=O)[C@H](CCCNC(=N)N)N(C)C(=O)c2ccccc2CSC(C)(C)[C@@H](C(=O)N[C@@H](Cc2cccc3ccccc23)C(=O)N[C@H](CCC(=O)O)C(=O)N[C@H](CCCCNC(=O)COCC(=O)NCCCC[C@@H](NC(=O)[C@@H](CCC(=O)O)NC(=O)[C@H](Cc2cccc3ccccc23)NC(=O)[C@H]2NC(=O)[C@H](CC(C)C)NC(=O)[C@H]([C@@H](C)O)NC(=O)[C@H](CC(=O)O)NC(=O)[C@H](CO)NC(=O)[C@H](CCCNC(=N)N)N(C)C(=O)c3ccccc3CSC2(C)C)C(N)=O)C(N)=O)NC1=O [compound 158] (I: [NMeR]SDTL[Pen][1Nal][dE][dK]-NH2 / II: [NMeR]SDTL[Pen][1Nal][dE][dK]-NH2; linker I:9-II:9 via Diglycolyl; linker I:N-I:6, II:N-II:6 via X1)",< 25
4,"CC(C)C[C@@H]1NC(=O)[C@H]([C@@H](C)O)NC(=O)[C@H](CC(=O)O)NC(=O)[C@H](CO)NC(=O)[C@H](CCCNC(=N)N)N(C)C(=O)c2ccccc2CSC(C)(C)[C@@H](C(=O)N[C@@H](Cc2ccc(-c3ccccc3)cc2)C(=O)N[C@H](CCC(=O)O)C(=O)N[C@H](CCCCNC(=O)COCC(=O)NCCCC[C@@H](NC(=O)[C@@H](CCC(=O)O)NC(=O)[C@H](Cc2ccc(-c3ccccc3)cc2)NC(=O)[C@H]2NC(=O)[C@H](CC(C)C)NC(=O)[C@H]([C@@H](C)O)NC(=O)[C@H](CC(=O)O)NC(=O)[C@H](CO)NC(=O)[C@H](CCCNC(=N)N)N(C)C(=O)c3ccccc3CSC2(C)C)C(=O)O)C(=O)O)NC1=O [compound 208] (I: [NMeR]SDTL[Pen][Bip][dE][dK]-OH / II: [NMeR]SDTL[Pen][Bip][dE][dK]-OH; linker I:9-II:9 via Diglycolyl; linker I:N-I:6, II:N-II:6 via X1)",< 25

# Reference: patent publication US20260217767A1, “NOVEL A4B7 THIOETHER PEPTIDE DIMER ANTAGONISTS” (Protagonist Therapeutics, Inc., priority 2014, published 2026)
